{"source": "ChEMBL document CHEMBL2176951", "about": "“Molecular mechanisms of acquired proteasome inhibitor resistance” (J Med Chem, 2012)", "key": {"SW1573": {"test_system": "SW1573", "experiment": "Effect on 20S proteasome subunit beta5 expression in human SW1573 cells at 150 nM relative to control", "format": "functional", "details": "pooled result: one value given for 7 cell lines, strains, targets or settings"}, "HT-29 [1]": {"test_system": "HT-29", "experiment": "Effect on 20S proteasome subunit beta5 expression in human HT-29 cells at 200 nM relative to control", "format": "functional"}, "HT-29 [2]": {"test_system": "HT-29", "experiment": "Effect on 20S proteasome subunit beta5 expression in human HT-29 cells at 100 nM relative to control", "format": "functional"}, "THP-1 [3]": {"test_system": "THP-1", "experiment": "Effect on 20S proteasome subunit beta5 expression in human THP1 cells at 200 nM relative to control", "format": "functional"}, "THP-1 [4]": {"test_system": "THP-1", "experiment": "Effect on 20S proteasome subunit beta5 expression in human THP1 cells at 100 nM relative to control", "format": "functional"}, "THP-1 [5]": {"test_system": "THP-1", "experiment": "Effect on 20S proteasome subunit beta5 expression in human THP1 cells at 50 nM relative to control", "format": "functional"}, "THP-1 [6]": {"test_system": "THP-1", "experiment": "Effect on 20S proteasome subunit beta5 expression in human THP1 cells at 30 nM relative to control", "format": "functional"}, "RPMI-8226 [7]": {"test_system": "RPMI-8226", "experiment": "Effect on PSMB5 mRNA expression in human RPMI8226 cells at 7 nM relative to control", "format": "functional"}, "RPMI-8226 [8]": {"test_system": "RPMI-8226", "experiment": "Effect on PSMB5 mRNA expression in human RPMI8226 cells at 100 nM relative to control", "format": "functional"}, "[9]": {"experiment": "Effect on PSMB5 mRNA expression in human Jurkat-B cells expressing PSMB5 C323T mutant at 1000 nM relative to control", "format": "functional"}, "[10]": {"experiment": "Effect on PSMB5 mRNA expression in human Jurkat-B cells expressing PSMB5 G322A mutant at 1000 nM relative to control", "format": "functional"}, "THP-1 [11]": {"test_system": "THP-1", "experiment": "Effect on PSMB5 mRNA expression in human THP1 cells at 200 nM relative to control", "format": "functional"}, "THP-1 [12]": {"test_system": "THP-1", "experiment": "Effect on PSMB5 mRNA expression in human THP1 cells at 100 nM relative to control", "format": "functional"}, "THP-1 [13]": {"test_system": "THP-1", "experiment": "Effect on PSMB5 mRNA expression in human THP1 cells at 50 nM relative to control", "format": "functional"}, "THP-1 [14]": {"test_system": "THP-1", "experiment": "Effect on PSMB5 mRNA expression in human THP1 cells at 30 nM relative to control", "format": "functional"}, "Homo sapiens": {"species_on_record": "Homo sapiens", "experiment": "P-gp-mediated drug resistance in human CEM/VLB cells relative to control", "format": "cell-based"}, "[15]": {"biological_target": "T1, Proteasome Macropain subunit MB1 (Homo sapiens, UniProt P28074)", "T1 sequence (P28074 whole entry)": "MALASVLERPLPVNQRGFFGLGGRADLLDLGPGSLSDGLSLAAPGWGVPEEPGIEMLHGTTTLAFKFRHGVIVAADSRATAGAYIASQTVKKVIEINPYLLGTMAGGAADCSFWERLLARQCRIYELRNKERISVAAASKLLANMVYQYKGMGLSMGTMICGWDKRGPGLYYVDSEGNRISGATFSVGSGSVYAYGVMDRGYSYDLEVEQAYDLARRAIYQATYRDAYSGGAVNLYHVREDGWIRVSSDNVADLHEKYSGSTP", "experiment": "Reversible inhibition of human erythrocyte derived 20S proteasome subunit beta5 after 30 mins by fluorogenic assay"}, "[16]": {"biological_target": "Proteasome Macropain subunit (Homo sapiens) (UniProt P49721)", "sequence (P49721 whole entry)": "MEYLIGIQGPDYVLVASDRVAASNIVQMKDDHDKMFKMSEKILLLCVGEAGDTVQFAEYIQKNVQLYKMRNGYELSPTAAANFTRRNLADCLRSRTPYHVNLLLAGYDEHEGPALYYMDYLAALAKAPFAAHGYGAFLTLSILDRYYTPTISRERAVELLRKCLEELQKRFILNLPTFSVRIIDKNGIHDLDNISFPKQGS", "experiment": "Ratio of Kinact to Ki for human 20S proteasome subunit beta2"}, "[17]": {"biological_target": "T2, Proteasome component C5 (Homo sapiens) (UniProt P20618)", "T2 sequence (whole entry)": "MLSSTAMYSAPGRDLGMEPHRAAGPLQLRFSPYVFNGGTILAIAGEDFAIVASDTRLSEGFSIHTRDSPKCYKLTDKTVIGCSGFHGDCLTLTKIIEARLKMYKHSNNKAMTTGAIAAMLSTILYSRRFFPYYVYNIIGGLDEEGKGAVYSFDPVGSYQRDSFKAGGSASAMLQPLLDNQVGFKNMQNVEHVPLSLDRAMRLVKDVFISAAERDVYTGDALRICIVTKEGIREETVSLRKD", "experiment": "Ratio of Kinact to Ki for human 20S proteasome subunit beta1"}, "[18]": {"biological_target": "T3, Proteasome Macropain subunit MB1 (Homo sapiens) (UniProt P28074)", "T3 sequence (whole entry)": "T1 sequence (P28074 whole entry)", "experiment": "Ratio of Kinact to Ki for human 20S proteasome subunit beta5"}, "RPMI-8226 [19]": {"test_system": "RPMI-8226", "experiment": "Resistance factor, ratio of IC50 for 100 nM bortezonib-resistant human RPMI8226 cells harboring proteosome subunit beta5 A49T mutant to IC50 for wild type human RPMI8226 cells", "format": "functional"}}, "data": [{"smiles": "CC(C)C[C@H](NC(=O)[C@H](Cc1ccccc1)NC(=O)c1cnccn1)B(O)O", "note": "[BORTEZOMIB]", "values": [{"measurement": "fold change (FC)", "setting": "SW1573", "result": 1.3}, {"measurement": "fold change (FC)", "setting": "HT-29 [1]", "result": 3}, {"measurement": "fold change (FC)", "setting": "HT-29 [2]", "result": 3}, {"measurement": "fold change (FC)", "setting": "THP-1 [3]", "result": 60}, {"measurement": "fold change (FC)", "setting": "THP-1 [4]", "result": 60}, {"measurement": "fold change (FC)", "setting": "THP-1 [5]", "result": 60}, {"measurement": "fold change (FC)", "setting": "THP-1 [6]", "result": 60}, {"measurement": "fold change (FC)", "setting": "RPMI-8226 [7]", "result": 5}, {"measurement": "fold change (FC)", "setting": "RPMI-8226 [8]", "result": 15}, {"measurement": "fold change (FC)", "setting": "[9]", "result": 0.9}, {"measurement": "fold change (FC)", "setting": "[10]", "result": 1.7}, {"measurement": "fold change (FC)", "setting": "THP-1 [11]", "result": 0.9}, {"measurement": "fold change (FC)", "setting": "THP-1 [12]", "result": 0.6}, {"measurement": "fold change (FC)", "setting": "THP-1 [13]", "result": 0.5}, {"measurement": "fold change (FC)", "setting": "THP-1 [14]", "result": 0.4}]}, {"smiles": "COC[C@H](NC(=O)c1cnc(C)s1)C(=O)N[C@@H](COC)C(=O)N[C@@H](Cc1ccccc1)C(=O)[C@@]1(C)CO1", "values": [{"measurement": "fold change (FC)", "setting": "Homo sapiens", "result": 23}]}, {"smiles": "CC(C)C[C@H](NC(=O)[C@@H](NC(=O)c1cccc(-c2ccccc2)n1)[C@@H](C)O)B(O)O", "note": "[DELANZOMIB]", "values": [{"measurement": "IC50", "setting": "[15]", "result": 3.5, "unit": "nM"}]}, {"smiles": "CC(C)C[C@H](NC(=O)[C@H](CCc1ccccc1)NC(=O)CN1CCOCC1)C(=O)N[C@@H](Cc1ccccc1)C(=O)N[C@@H](CC(C)C)C(=O)[C@@]1(C)CO1", "note": "[CARFILZOMIB]", "values": [{"measurement": "Ratio", "setting": "[16]", "result": "< 100", "unit": "M⁻¹ s⁻¹"}, {"measurement": "Ratio", "setting": "[17]", "result": "< 100", "unit": "M⁻¹ s⁻¹"}, {"measurement": "Ratio", "setting": "[18]", "result": 33000, "unit": "M⁻¹ s⁻¹"}, {"measurement": "fold change (FC)", "setting": "Homo sapiens", "result": 114}, {"measurement": "Ratio IC50", "setting": "RPMI-8226 [19]", "result": 9.7}]}]}
